Test results taken from US20060013780A1, “N,N'-dialkyl derivatives of polyhydroxyalkyl alkylenediamines” (priority 2004, published 2006).

Experiments:
[1] = Dynamic surface tension, maximum bubble pressure method; assay type: physicochemical; details: for DST (0.1 WT %, mN/m) 0.1 b/s / DST (0.1 WT %, mN/m) 10 b/s: 0.1 wt % in distilled and deionized water; for DST (0.1 WT %, mN/m) 0.1 b/s / DST (0.5 WT %, mN/m) 0.1 b/s: 0.1 bubbles/sec; for DST (0.1 WT %, mN/m) 10 b/s / DST (0.5 WT %, mN/m) 10 b/s: 10 bubbles/sec; for DST (0.5 WT %, mN/m) 0.1 b/s / DST (0.5 WT %, mN/m) 10 b/s: 0.5 wt % in distilled and deionized water
Protocol: Solutions in distilled and deionized water of the surfactants of the invention were prepared. […] In a practical sense, high surface creation rates refer to rapid processes such as a spray or roller-applied coating, a high speed printing operation, or the rapid application of an agricultural product or a cleaner.

[2] = Equilibrium surface tension, Kruss K-12 tensiometer with platinum Wilhelmy plate; assay type: physicochemical; details: 25±1° C.; for EST (0.01 WT %, mN/m): 0.01 wt % in water; for EST (0.1 WT %, mN/m): 0.1 wt % in water; for EST (1.0 WT %, mN/m): 1.0 wt % in water
Protocol: Equilibrium surface tensions were determined using a Kruss K-12 tensiometer with a platinum Wilhelmy plate, maintaining the temperature at 25±1° C. by means of a constant temperature circulating bath.

[3] = Cleaning performance, ASTM D4488-95, reflectance of white vinyl composition tile; details: 0.1% (wt %) surfactant
From the text: Although dynamic and equilibrium surface tension as well as foam influence the cleaning ability of a surfactant, other factors also affect cleaning performance. Thus one good way to determine the cleaning ability of a surfactant is to apply a soil to a substrate, clean that substrate with the surfactant of interest and some benchmark surfactants, and compare relative cleaning efficacies in terms of percent soil removal. One method for conducting such testing is described in ASTM D4488-95, “Standard Guide for Testing Cleaning Performance of Products Intended for Use on Resilient Flooring and Washable Walls.” This method was followed according to the particulate and oily soil/vinyl tiles test methodology, with cleaning performance being evaluated by reading average reflectance values (5 readings/tile) of a white vinyl composition tile before and after cleaning (Table 6). The higher the reflectance value the better the cleaning ability of the surfactant.
The cleaning performance of surfactants according to the invention was compared side by side with that of two benchmark surfactants, Neodol 23-6.5 (available from Shell Chemical of Houston, Tex.) and AG 6202 (available from Akzo Nobel of McCook, Ill.), an alcohol ethoxylate and an alkylpolyglucoside surfactant, respectively.

[4] = Ross-Miles foam test (modified, ASTM D1173-53); assay type: physicochemical; details: surfactant in water; 0.01 wt % and 0.1 wt %, table does not say which
[5] = Aqueous solubility comparison; details: in water
Protocol: Comparison of the aqueous solubilities of several N,N′-dialkyl-N,N′-bis(1-deoxyglucityl)ethylenediamines was performed, with the results as follows:
The ratios of compounds are on a molar basis.

Row | DST (0.1 WT %, mN/m) 0.1 b/s [1] [mN/m] | DST (0.1 WT %, mN/m) 10 b/s [1] [mN/m] | DST (0.5 WT %, mN/m) 0.1 b/s [1] [mN/m] | DST (0.5 WT %, mN/m) 10 b/s [1] [mN/m] | dynamic surface tension reduction in words ([1]; Table 4 data, strong at low bubble rates) | EST (0.01 WT %, mN/m) [2] [mN/m] | EST (0.1 WT %, mN/m) [2] [mN/m] | EST (1.0 WT %, mN/m) [2] | Ross Miles Final Foam (cm) [4] [cm] | Ross Miles Initial Foam (cm) [4] [cm] | Compound | % SOIL REMOVAL [3] [%] | aqueous solubility in words [5]
1 | 63 | 67 | 56 | 47 | moderate to low | 62 | 50 | 47 mN/m | 0.5 | 1.8 | CCCCN(CCN(CCCC)C[C@H](O)[C@@H](O)[C@H](O)[C@H](O)CO)C[C@H](O)[C@@H](O)[C@H](O)[C@H](O)CO [DBDGEDA, N,N′-dibutyl-N,N′-bis(1-deoxyglucityl)-1,2-diaminoethane] | 45 | –
2 | 68 | 70 | 55 | 57 | – | 64 | 60 | 52 mN/m | 1.0 | 2.0 | CCCCCCNC[C@H](O)[C@@H](O)[C@H](O)[C@H](O)CO [N-Hexylglucamine] | – | –
3 | 54 | 65 | 48 | 62 | – | 55 | 35 | 35 mN/m | 0.3 | 2.0 | CCCCCCCCNC[C@H](O)[C@@H](O)[C@H](O)[C@H](O)CO [N-Octylglucamine] | – | –
4 | – | – | – | – | – | – | – | – | – | – | N,N′-dioctyl-N,N′-bis(1-deoxyglucityl)ethylenediamine [DODGEDA] | 48 | –

Row | Compound | DST (0.1 WT %, mN/m) 0.1 b/s [1] [mN/m] | DST (0.1 WT %, mN/m) 10 b/s [1] [mN/m] | DST (0.5 WT %, mN/m) 0.1 b/s [1] [mN/m] | DST (0.5 WT %, mN/m) 10 b/s [1] [mN/m] | dynamic surface tension reduction in words ([1]; Table 4 data, strong at low bubble rates) | EST (0.01 WT %, mN/m) [2] [mN/m] | EST (0.1 WT %, mN/m) [2] [mN/m] | EST (1.0 WT %, mN/m) [2] | Ross Miles Final Foam (cm) [4] [cm] | Ross Miles Initial Foam (cm) [4] [cm] | % SOIL REMOVAL [3] [%] | aqueous solubility in words [5]
5 | CCCCCCN(CCN(CCCCCC)C[C@H](O)[C@@H](O)[C@H](O)[C@H](O)CO)C[C@H](O)[C@@H](O)[C@H](O)[C@H](O)CO [DHDGEDA, N,N′-dihexyl-N,N′-bis(1-deoxyglucityl)-1,2-diaminoethane] | 37 | 51 | 30 | 32 | – | 57 | 33 | 30 mN/m | 1.5 | 3.6 | 67 | extreme insolubility
6 | CCCCNC[C@H](O)[C@@H](O)[C@H](O)[C@H](O)CO [N-Butylglucamine] | 71 | 72 | 70 | 71 | – | – | – | ≧50 mN/m | 0.3 | 2.5 | – | –
